Source: the supplement of paper PMC5579334

Columns and labels:
HSC1 [1] = test: relative IC50 (inflection point of fitted dose-response curve, CellTox-Green cytotoxicity, 72 h; top asymptote may be below 50%); higher = less potent
Outline: (§1)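 MPNST cell lines and primary human Schwann cells were incubated 72 h at 37 °C in 384-well plates holding five 10-fold compound dilutions. CellTox-Green was added before seeding at a final 1:1000 dilution and reported fluorescence from DNA released by disrupted cells. Signals were scaled to vehicle and positive-control wells, and cultures failing plate quality control were dropped. Drug sensitivity score and relative IC50 come from four-parameter logistic fits, with IC50 censored at the top concentration.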

HSC2 [2] = test: as above
Outline: as §1

ST8814 [3] = test: as above
Outline: as §1

STS26T [4] = test: as above
Outline: as §1

HSC1 [5] = test: relative IC50 (inflection point of fitted dose-response curve, CellTiter-Glo viability, 72 h; top asymptote may be below 50% inhibition); higher = less potent
Outline: (§2)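 MPNST cell lines and primary human Schwann cells (750–1000 cells per well) went into 384-well plates preprinted with each compound at five concentrations in 10-fold steps. Plates were incubated 72 h at 37 °C, 5% CO2. Viability was read as CellTiter-Glo ATP luminescence, scaled between vehicle and positive-control wells, with duplicates averaged where present. Percent inhibition is at the top concentration; drug sensitivity score and relative IC50 (censored at top concentration) come from four-parameter logistic fits.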

HSC2 [6] = test: as above
Outline: as §2

S1507-2 = test: as above
Outline: as §2

ST8814 [7] = test: as above
Outline: as §2

STS26T [8] = test: as above
Outline: as §2

HS-PSS [9] = test: relative IC50 (inflection point of fitted dose-response curve, CellTox-Green cytotoxicity, 72 h; top asymptote may be below 50%); higher = less potent
Outline: as §1

HS-PSS [10] = test: relative IC50 (inflection point of fitted dose-response curve, CellTiter-Glo viability, 72 h; top asymptote may be below 50% inhibition); higher = less potent
Outline: as §2

S462 = test: as above
Outline: as §2

YST-1 = test: as above
Outline: as §2

HS-Sch-2 = test: as above
Outline: as §2

| Compound | relative IC50 (HSC1 [1]) [µM] | relative IC50 (HSC2 [2]) [µM] | relative IC50 (ST8814 [3]) [µM] | relative IC50 (STS26T [4]) [µM] | relative IC50 (HSC1 [5]) [nM] | relative IC50 (HSC2 [6]) [nM] | relative IC50 (S1507-2) [nM] | relative IC50 (ST8814 [7]) [nM] | relative IC50 (STS26T [8]) [nM] | relative IC50 (HS-PSS [9]) [µM] | relative IC50 (HS-PSS [10]) [nM] | relative IC50 (S462) [nM] | relative IC50 (YST-1) [nM] | relative IC50 (HS-Sch-2) [nM] |
| --- | --- | --- | --- | --- | --- | --- | --- | --- | --- | --- | --- | --- | --- | --- |
| CN(C)C(=N)NC(=N)N [Metformin aq] | > 100 | > 100 | > 100 | > 100 | > 100000 | > 100000 | > 100000 | > 100000 | > 100000 |  |  |  |  |  |
| CC[C@@H]1C(=O)OC[C@@H]1Cc1cncn1C [Pilocarpine] | > 40 | > 40 | > 40 | > 40 | > 40000 | > 40000 |  | > 40000 | > 40000 | > 40 | > 40000 | > 40000 | > 40000 |  |
| c1cc(CN2CCCNCCNCCCNCC2)ccc1CN1CCCNCCNCCCNCC1 [Plerixafor aq] | > 10 | 2.81 | > 10 |  | > 10000 | > 10000 | > 10000 | > 10000 | > 10000 |  |  | > 10000 |  |  |
| Cc1cnc(NC(=O)Nc2cc(Br)c(C)cc2OC[C@@H]2CNCCO2)cn1 [Rabusertib] |  | > 1 | > 1 | 0.33 |  |  | 236 | > 1000 | 189 | > 1 |  | 319 | 242 | 302 |
| CC(C)(C)Cn1c(N)nc2ccc(-c3[nH]c(C(C)(C)C)nc3-c3ccc(F)cc3)nc21 [Ralimetinib] | > 10 | > 10 | > 10 | > 10 | 2330 | 474 | 2140 | 1560 | 2920 | > 10 | 4090 |  | 115 | 3330 |
| O=C(c1ccc(OCCN2CCCCC2)cc1)c1c(-c2ccc(O)cc2)sc2cc(O)ccc12 [Raloxifene] | > 10 | > 10 | 3.43 | 3.8 | 3100 | 1840 | 3100 | 2940 | 3280 |  | 1130 |  | 1820 | 1810 |
| CNCc1ccc(-c2[nH]c3cc(F)cc4c3c2CCNC4=O)cc1 [Rucaparib] | > 10 | > 10 | > 10 | > 10 | > 10000 | > 10000 | > 10000 | > 10000 | > 10000 | > 10 | 1040 |  | 447 |  |
| CC(C)N(CCCNC(=O)Nc1ccc(C(C)(C)C)cc1)C[C@H]1O[C@@H](n2cc(Br)c3c(N)ncnc32)[C@H](O)[C@@H]1O [SGC0946] | > 10 | > 10 | 3.07 | > 10 |  |  | 2090 | 3450 | > 10000 | 2.49 | 1940 |  | 3670 | 3000 |
| Cn1c(=O)c(F)c(Nc2ccc(I)cc2F)c2c(=O)n(C[C@@H](O)CO)cnc21 [TAK-733] | > 1 | > 1 | 0.218 |  | 97.3 | 90.6 | 85 | 87.9 | 25.1 | > 1 | 162 | 58.5 |  | 152 |
| COc1cc(Nc2ncc(F)c(Nc3ccc4c(n3)NC(=O)C(C)(C)O4)n2)cc(OC)c1OC [Tamatinib] | > 10 |  |  |  | 665 | 1590 | > 10000 |  |  | > 10 | > 10000 | > 10000 | > 10000 |  |
| CC/C(=C(\c1ccccc1)c1ccc(OCCN(C)C)cc1)c1ccccc1 [Tamoxifen] | > 10 | > 10 | 2.49 |  |  | 3370 | 3950 | 3340 |  | > 10 | 3900 |  | 3250 | 2300 |
| Nc1nc2[nH]cnc2c(=S)[nH]1 [Thioguanine] | > 10 | > 10 |  | 2.92 |  | > 10000 | 2270 | 642 | 717 | > 10 | 1450 | 1200 | 1370 | 1120 |
| COc1cc2c(NC3CCN(C(C)C)CC3)nc(C3CCCCC3)nc2cc1OCCCN1CCCC1 [UNC0638] |  | > 10 | 2.23 | 3.39 |  |  | 1720 | 2640 | 3500 | 2.54 | 1740 | 2730 | 2870 | 2270 |
| Cc1cnc(Nc2ccc(F)cc2Cl)nc1-c1c[nH]c(C(=O)N[C@H](CO)c2cccc(Cl)c2)c1 [VX-11E] | 0.874 | 0.651 | 0.816 | 0.896 | 750 | 696 | 966 | 905 | 830 | > 2.5 | 756 |  | > 2500 | 367 |
| Oc1nc(-c2ccc(C(F)(F)F)cc2)nc2c1CSCC2 [XAV-939] | > 10 | > 10 | > 10 |  | 286 | 314 | 1580 | > 10000 |  | > 10 |  | > 10000 |  | > 10000 |
| FC(F)c1nc2ccccc2n1-c1nc(N2CCOCC2)nc(N2CCOCC2)n1 [ZSTK474] | > 10 |  | > 10 |  | 876 | 692 | 251 | 658 | 244 | > 10 | 831 | 582 | 248 | 1050 |
